Entries after “also recorded” stand apart in the source; their conditions may differ. Read-outs that look alike come from different tables or passages of the source.

The target in one data set is T1, D2 receptor (Rattus norvegicus, UniProt P61169).
T1 construct: 15μg/mL of striatal homogenate was incubated in triplicate; from tissue; host or cells: rat striatum homogenate
The data set can be described thus: Functional D2 receptor [35S]GTPγS assay (antagonist mode vs dopamine; basal for agonism).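 Also: [35S]GTPγS binding counted by scintillation after 60 min at 30 °C, nonspecific binding defined with 100 µM unlabeled GTPγS, inhibition curves fitted by one-site nonlinear regression.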 It counts as biochemical. As to conditions: against 40 µM dopamine, rat striatal homogenate; read-out: D2 receptor antagonistic activity IC50 (95% CI).

In data set [1] the test system is mice. The data set can be described thus: Spontaneous locomotor activity. The data set is classed as in vivo, mouse.
Data set [2] relates to mice. Kind of data set: Rota-rod test (motor coordination). It counts as in vivo, mouse. As to conditions: 30 mg/kg i.p., 60 min before the test. How it is done:
(§1) The experiments were carried out, in the Experimental Medicine Center of Medical University of Lublin, on six-week-old naive male Swiss mice, weighing 24–30 g. The mice were housed in cages, five individuals per cage in an environmentally controlled rooms (ambient temperature 22 ± 1 °C; relative humidity 50–60%; 12 h light/dark cycle, lights on at 8:00). Standard laboratory food(LSM-Agropol-Motycz, Lublin, Poland) and filtered water were available ad libitum. All the experimental procedures were carried out, according to the National Institute of Health Guidelines for the Care and Use of Laboratory Animals and to the European Community Council Directive for the Care and Use of Laboratory Animals of 22 September 2010 (2010/63/EU) and approved by the Local Ethics Committee for Animal Experimentation in Lublin. The investigated compounds (Norbo-4, Norbo-8, Norbo-10, Norbo-14, Norbo-18 and Norbo-20) in all tests were administered intraperitoneally (i.p.), dissolved in dimethyl sulfoxide (DMSO, final concentration of 0.1%) and then diluted by aqueous solution of 0.5% methylcellulose (tylose) and injected 60 min before the tests. […] All compounds were given in a volume of 10 mL/kg to mice. The control animals received an equivalent volume of the solvent at the respective time before the tests. All the experiments were conducted in the light phase between 09.00 a.m. and 14.00 p.m. The experiments were performed by an observer unaware of the treatment administered. The effects of investigated compounds on motor coordination were evaluated in the rota-rod and chimney tests. In the first test, motor impairments were measured, defined as the inability to keep balance on a rotating rod (at constant speed of 18 rpm) for 1 min. In the second test, motor impairments were assessed by mouse inability to climb up the tube backwards (3 cm in inner diameter, 25 cm long) within 60 s. Before the tests, the animals were trained once a day for 3 days. The animals able to stay on the rotating rod or to leave the chimney for 60 s were approved for experiments.

The next data set has as its target 5-HT2A receptor (Rattus norvegicus, UniProt P14842). The data set can be described thus: 5-HT2A competition binding assay ([3H]ketanserin, frontal cortex homogenates).
Data set [3] concerns 5-HT2A receptors (5-HT-induced contractions in the rat ileum). Kind of data set: 5-HT-evoked contractions of isolated rat ileum. As to conditions: 5-HT 10^−5 M; compounds 10^−8–10^−5 M.
The next data set concerns the target T2, 5-HT1A receptor (Rattus norvegicus, UniProt P19327).
T2 construct: 15 μg/mL of hippocampus homogenate was incubated in triplicate with 0.8 nM; from tissue; host or cells: rat hippocampus homogenate
T2 sequence (P19327 1-422): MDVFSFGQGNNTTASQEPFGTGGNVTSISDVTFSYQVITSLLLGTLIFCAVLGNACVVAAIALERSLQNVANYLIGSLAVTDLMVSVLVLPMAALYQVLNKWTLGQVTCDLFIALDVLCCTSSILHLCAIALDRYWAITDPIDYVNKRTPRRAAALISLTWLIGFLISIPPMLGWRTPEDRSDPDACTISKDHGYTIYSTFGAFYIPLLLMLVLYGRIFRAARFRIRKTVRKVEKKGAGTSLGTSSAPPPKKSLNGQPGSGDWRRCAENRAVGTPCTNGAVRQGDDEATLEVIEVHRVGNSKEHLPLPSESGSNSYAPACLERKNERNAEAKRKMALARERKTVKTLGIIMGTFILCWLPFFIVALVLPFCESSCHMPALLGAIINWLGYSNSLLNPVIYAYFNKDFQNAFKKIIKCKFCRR
The data set can be described thus: Functional 5-HT1A receptor [35S]GTPγS assay (agonist mode).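 Also: male Sprague-Dawley rat hippocampal membranes incubated 90 min at 37 °C, bound label counted by scintillation after filtration, non-specific binding defined with 100 µM unlabeled GTPγS, one-site curve fit.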 It counts as biochemical. As to conditions: [35S]GTPγS, rat hippocampus homogenate.

The target in a further data set is T3, human 5-HT2C receptor (Homo sapiens, UniProt P28335).
T3 sequence (P28335 33-458): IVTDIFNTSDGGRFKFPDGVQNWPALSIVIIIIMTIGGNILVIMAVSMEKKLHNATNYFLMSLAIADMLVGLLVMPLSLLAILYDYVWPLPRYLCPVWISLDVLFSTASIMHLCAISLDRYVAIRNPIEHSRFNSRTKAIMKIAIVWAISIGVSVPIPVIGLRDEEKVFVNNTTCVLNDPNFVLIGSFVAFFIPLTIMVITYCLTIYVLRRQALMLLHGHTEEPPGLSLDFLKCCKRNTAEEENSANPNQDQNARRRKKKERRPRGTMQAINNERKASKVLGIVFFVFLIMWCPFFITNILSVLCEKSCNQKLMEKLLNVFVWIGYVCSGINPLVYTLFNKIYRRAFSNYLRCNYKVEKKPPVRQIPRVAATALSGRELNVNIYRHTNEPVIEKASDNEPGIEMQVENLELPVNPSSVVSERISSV
The data set can be described thus: 5-HT2C competition binding assay ([3H]mesulergine, transfected cell membranes). As to conditions: [3H]mesulergine, human 5-HT2C membranes; read-out: 5-HT2C Ki (95% CI).

Data set [4] concerns mice. Kind of data set: Chimney test (motor coordination). It counts as in vivo, mouse. As to conditions: 30 mg/kg i.p., 60 min before the test. On the procedure: as §1
Data set [5] deals with mice. Kind of data set: Forced swim test (FST, Porsolt's test). It counts as in vivo, mouse. As to conditions: 15 mg/kg i.p., 60 min before the test. How it is done: as §1, with “The experiment was carried out according to the method” for “The effects”, “of Porsolt et al.. Mice were individually placed in a glass cylinder (25 cm high; 10 cm in diameter) containing water maintained at 23–25 °C, and were left there for 6 min. The total duration of immobility was recorded during the last 4 min of a 6-min test session. A mouse was regarded as immobile when it remained floating” for “of investigated compounds”, “on” for “on motor coordination were evaluated in”, “the water, making only small movements” for “the rota-rod and chimney tests. In the first test, motor impairments were measured, defined as the inability”, “keep its head above” for “keep balance on a rotating rod (at constant speed of 18 rpm) for 1 min. In”, “the water.” for “the second test, motor impairments were assessed by mouse inability to climb up the tube backwards (3 cm in inner diameter, 25 cm long) within 60 s. Before the tests, the animals were trained once a day for 3 days. The animals able to stay on the rotating rod or to leave the chimney for 60 s were approved for experiments.”

Data set [6] relates to mice. The data set can be described thus: Elevated plus-maze test (EPM). It counts as in vivo, mouse. As to conditions: 5 mg/kg i.p., 60 min before the test. How it is done:
The experiments were carried out, in the Experimental Medicine Center of Medical University of Lublin, on six-week-old naive male Swiss mice, weighing 24–30 g. The mice were housed in cages, five individuals per cage in an environmentally controlled rooms (ambient temperature 22 ± 1 °C; relative humidity 50–60%; 12 h light/dark cycle, lights on at 8:00). Standard laboratory food(LSM-Agropol-Motycz, Lublin, Poland) and filtered water were available ad libitum. All the experimental procedures were carried out, according to the National Institute of Health Guidelines for the Care and Use of Laboratory Animals and to the European Community Council Directive for the Care and Use of Laboratory Animals of 22 September 2010 (2010/63/EU) and approved by the Local Ethics Committee for Animal Experimentation in Lublin. The investigated compounds (Norbo-4, Norbo-8, Norbo-10, Norbo-14, Norbo-18 and Norbo-20) in all tests were administered intraperitoneally (i.p.), dissolved in dimethyl sulfoxide (DMSO, final concentration of 0.1%) and then diluted by aqueous solution of 0.5% methylcellulose (tylose) and injected 60 min before the tests. […] All compounds were given in a volume of 10 mL/kg to mice. The control animals received an equivalent volume of the solvent at the respective time before the tests. All the experiments were conducted in the light phase between 09.00 a.m. and 14.00 p.m. The experiments were performed by an observer unaware of the treatment administered. The EPM studies were carried out on mice according to the method of Lister. The EPM apparatus was made of plexiglass and consisted of two open (30 × 5 cm) and two enclosed (30 × 5 × 15 cm) arms. The arms extended from a central platform of 5 × 5 cm. The apparatus was mounted on a plexiglass base, raising it 38.5 cm above the floor, and illuminated by a red light. The test consisted of placing a mouse in the center of the apparatus (facing an open arm) and allowing it to freely explore. The number of entries into the open arms and the time spent in these arms were scored for a 5 min test period. An entry was defined as placing all four paws within the boundaries of the arm. The following measures were obtained from the test: the total number of arm entries; the percentage of arm entries into the open arms; and the time spent in the open arms expressed as a percentage of the time spent in both the open and closed arms. Anxiolytic activity was indicated by increases in the time spent in open arms and in the number of open arm entries. The total number of entries into either type of arm was used additionally as a measure of overall motor activity.

The mark [7] stands for this setting: 30 mg/kg i.p., after 6 min of observation.
The mark [8] stands for this setting: 30 mg/kg i.p., after 20 min of observation.

T1 sequence (P61169 whole entry): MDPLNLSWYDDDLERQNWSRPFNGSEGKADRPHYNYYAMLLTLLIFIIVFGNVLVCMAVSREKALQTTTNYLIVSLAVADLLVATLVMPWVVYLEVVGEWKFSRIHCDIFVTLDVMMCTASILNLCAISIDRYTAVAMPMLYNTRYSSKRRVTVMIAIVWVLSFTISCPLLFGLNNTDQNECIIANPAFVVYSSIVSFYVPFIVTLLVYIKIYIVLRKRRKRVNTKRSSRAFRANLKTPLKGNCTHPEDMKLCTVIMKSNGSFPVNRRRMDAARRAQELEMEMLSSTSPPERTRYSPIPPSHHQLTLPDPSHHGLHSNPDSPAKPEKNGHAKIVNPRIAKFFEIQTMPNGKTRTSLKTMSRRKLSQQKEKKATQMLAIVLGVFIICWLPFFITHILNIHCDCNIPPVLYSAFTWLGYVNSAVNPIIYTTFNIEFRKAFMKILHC
Sequence of 5-HT2A receptor (P14842 whole entry): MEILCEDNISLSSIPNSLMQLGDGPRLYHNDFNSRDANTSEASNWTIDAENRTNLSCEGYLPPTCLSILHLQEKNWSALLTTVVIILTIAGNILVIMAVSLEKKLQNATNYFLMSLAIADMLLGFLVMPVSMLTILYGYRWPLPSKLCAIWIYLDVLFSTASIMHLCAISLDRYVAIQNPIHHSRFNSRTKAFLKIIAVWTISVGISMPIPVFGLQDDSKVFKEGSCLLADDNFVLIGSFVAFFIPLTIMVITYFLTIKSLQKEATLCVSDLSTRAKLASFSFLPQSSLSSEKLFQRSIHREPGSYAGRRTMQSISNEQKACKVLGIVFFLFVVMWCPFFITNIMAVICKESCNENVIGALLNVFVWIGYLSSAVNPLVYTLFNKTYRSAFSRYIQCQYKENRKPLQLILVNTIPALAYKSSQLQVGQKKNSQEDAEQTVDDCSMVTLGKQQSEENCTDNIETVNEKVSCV

Regarding `O=C(NCCCN1CCN(c2ccc(Cl)c(Cl)c2)CC1)C1CC2C=CC1C2` (stereo not drawn) [Norbo-14, endo-N-(3-(4-(3,4-dichlorophenyl)piperazin-1-yl)propyl)bicyclo[2.2.1]hept-5-ene-2-carboxamide], the IC50 at D2 receptor amounted to 41100 nM. In addition, the spontaneous locomotor activity result in the data set with mice [1] (15 mg/kg i.p., after 20 min of observation) is listed as “significant decrease in locomotor activity”; in the data set on mice [1] (setting [7]), “significant decrease in locomotor activity”; with mice [1] (setting [8]), “significant decrease in locomotor activity”. The time on rota-rod result in the data set on mice [2] is reported as “decreased also time on rota-rod; also recorded: impaired motor coordination”. Further, the values for the Ki at 5-HT2A receptor (read-out: 5-HT2A Ki (95% CI)) and on human 5-HT2C receptor were 17.9 nM and 3640 nM, respectively. The “Emax, maximal inhibitory effect on 5-HT-induced contractions in the rat ileum” value in [3] is 22.57%. Also, the “5-HT1A Receptor G-Protein Stimulation pEC50” value on 5-HT1A receptor (± SEM) is recorded as “no activity”. Besides, the time in chimney result in the data set on mice [4] was “significant increase of time in chimney; also recorded: disturbed the behavior of mice”.

Turning to `O=C(NCCCN1CCN(c2ccc(F)cc2)CC1)C1CC2C=CC1C2` (stereo not drawn) [Norbo-18, endo.-N-(3-(4-(4-fluorophenyl)piperazin-1-yl)propyl)bicyclo[2.2.1]hept-5-ene-2-carboxamide], the IC50 on D2 receptor turned out to be 82900 nM. Besides, the spontaneous locomotor activity entry in the data set on mice [1] (setting [7]) and in the data set with mice [1] (setting [8]) was “significant decrease in locomotor activity” each time. Besides, the time on rota-rod entry in the data set with mice [2] is on record as “decreased also time on rota-rod; also recorded: impaired motor coordination”. Also, the Ki on 5-HT2A receptor (± SEM, read-out: 5-HT2A pKi (converted)) is 18.6 nM; on human 5-HT2C receptor, 212 nM. The “Emax, maximal inhibitory effect on 5-HT-induced contractions in the rat ileum” value in [3] is recorded as 25.28%. Besides, the “5-HT1A Receptor G-Protein Stimulation Emax (%) ± SEM” value at 5-HT1A receptor is recorded as 143 ± 5.1 ^&&& %. The concentration for a half-maximal effect (EC50) at 5-HT1A receptor (read-out: 5-HT1A Receptor G-Protein Stimulation EC50 (95% CI)) worked out at 2320 nM. The time in chimney result with mice [4] was “significant increase of time in chimney; also recorded: disturbed the behavior of mice”. Further, in the data set with mice [5], the “immobility time in FST” value was “significant reduction in immobility time; also recorded: significant reduction of immobility time”.

As for `O=C1CC2(CCCC2)CC(=O)N1CCCCN1CCN(c2ncccn2)CC1` [buspirone, reference compound], the “percentage of the open arm entries (EPM)” value in the data set on mice [6] is listed as “significant increase”; with mice [6] (listed as Buspirone), “increased the percentage of entries into the open arms”. The entries for the “percentage of time spent in open arms (EPM)” value in the data set on mice [6] and in the data set on mice [6] (listed as Buspirone) were “significant increase” and “prolonged the time”, respectively.

As to `CN[C@H]1CC[C@@H](c2ccc(Cl)c(Cl)c2)c2ccccc21` [sertraline, reference compound], the results for the “immobility time in FST” value in the data set with mice [5] and in the data set with mice [5] (listed as Sertraline) were “significant reduction in the immobility time” and “significantly shortened the immobility time”, respectively.

(Values after article PMC9572521, “Synthesis, Docking Studies and Pharmacological Evaluation of Serotoninergic Ligands Containing a 5-Norbornene-2-Carboxamide Nucleus” (Molecules, 2022).)
